Reference: the kinase profiling compilation of Christmann-Franck et al. (2016)
Several values for one entry are separate records, joined by “and”; a condition that tells them apart may be missing. Equal entries are not always repeated.

Legend:
Assay in all cases: radiometric filter-binding kinase assay, Kinase HotSpot
Details in all cases: compound 0.5 µM; ATP 10 µM
CAMK2A (human) = CAMK2A (human) (UniProt Q9UQM7)
CAMK2B (human) = CAMK2B (human) (UniProt Q13554)
CLK1 (human) = CLK1 (human) (UniProt P49759)
FGR (human) = FGR (human) (UniProt P09769)
CAMK1 (human) = CAMK1 (human) (UniProt Q14012)
STK16 (human) = STK16 (human) (UniProt O75716)
MAP3K5 (human) = MAP3K5 (human) (UniProt Q99683)
CAMK2D (human) = CAMK2D (human) (UniProt Q13557)
CDK4 CCND3 (human) = CDK4 CCND3 (human) (UniProt P30281+P11802)
CAMK2G (human) = CAMK2G (human) (UniProt Q13555)
MAP3K11 (human) = MAP3K11 (human) (UniProt Q16584)
NEK6 (human) = NEK6 (human) (UniProt Q9HC98)
MAPKAPK3 (human) = MAPKAPK3 (human) (UniProt Q16644)
MAP4K4 (human) = MAP4K4 (human) (UniProt O95819)
IRAK1 (human) = IRAK1 (human) (UniProt P51617)
ROCK2 (human) = ROCK2 (human) (UniProt O75116)
STK25 (human) = STK25 (human) (UniProt O00506)
PASK (human) = PASK (human) (UniProt Q96RG2)
STK3 (human) = STK3 (human) (UniProt Q13188)
EPHB3 (human) = EPHB3 (human) (UniProt P54753)
CAMK4 (human) = CAMK4 (human) (UniProt Q16566)
LCK (human) = LCK (human) (UniProt P06239)
MAP3K7 TAB1 (human) = MAP3K7 TAB1 (human) (UniProt O43318+Q15750)
CDK6 CCND3 (human) = CDK6 CCND3 (human) (UniProt P30281+Q00534)
STK17A (human) = STK17A (human) (UniProt Q9UEE5)
MAPK8 (human) = MAPK8 (human) (UniProt P45983)
NEK9 (human) = NEK9 (human) (UniProt Q8TD19)
GRK5 (human) = GRK5 (human) (UniProt P34947)
PNCK (human) = PNCK (human) (UniProt Q6P2M8)
STK10 (human) = STK10 (human) (UniProt O94804)
STK38 (human) = STK38 (human) (UniProt Q15208)
DCLK2 (human) = DCLK2 (human) (UniProt Q8N568)
STK33 (human) = STK33 (human) (UniProt Q9BYT3)
SRC (human) = SRC (human) (UniProt P12931)
MAPK3 (human) = MAPK3 (human) (UniProt P27361)
MAP2K1 (human) = MAP2K1 (human) (UniProt Q02750)
MYLK (human) = MYLK (human) (UniProt Q15746)
PRKG1 (human) = PRKG1 (human) (UniProt Q13976)
JAK3 JH1 JH2 (human) = JAK3 JH1 JH2 (human) (UniProt P52333)
TGFBR2 (human) = TGFBR2 (human) (UniProt P37173)
MINK1 (human) = MINK1 (human) (UniProt Q8N4C8)
CDK5 CDK5R1 p35 (human) = CDK5 CDK5R1 p35 (human) (UniProt Q00535+Q15078)

PRKG1 (human), sequence (Q13976 whole entry, looked up): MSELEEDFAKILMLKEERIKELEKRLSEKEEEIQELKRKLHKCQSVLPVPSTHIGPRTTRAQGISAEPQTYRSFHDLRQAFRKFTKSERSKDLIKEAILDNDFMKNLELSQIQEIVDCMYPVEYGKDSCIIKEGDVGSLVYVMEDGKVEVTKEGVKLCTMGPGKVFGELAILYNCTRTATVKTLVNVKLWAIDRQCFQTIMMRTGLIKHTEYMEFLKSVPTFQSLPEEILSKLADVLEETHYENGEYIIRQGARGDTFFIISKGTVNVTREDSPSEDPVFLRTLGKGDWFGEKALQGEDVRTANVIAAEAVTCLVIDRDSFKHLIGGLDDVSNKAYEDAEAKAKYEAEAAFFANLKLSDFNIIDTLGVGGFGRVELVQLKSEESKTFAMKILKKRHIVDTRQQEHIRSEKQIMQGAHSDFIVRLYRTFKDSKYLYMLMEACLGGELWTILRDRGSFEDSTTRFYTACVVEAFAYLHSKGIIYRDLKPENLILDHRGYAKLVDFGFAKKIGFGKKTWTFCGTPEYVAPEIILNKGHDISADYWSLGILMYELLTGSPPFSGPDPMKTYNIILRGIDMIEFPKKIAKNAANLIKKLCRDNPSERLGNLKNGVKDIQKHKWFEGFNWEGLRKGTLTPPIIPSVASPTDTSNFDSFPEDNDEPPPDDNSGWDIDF
MINK1 (human), sequence (Q8N4C8 whole entry, looked up): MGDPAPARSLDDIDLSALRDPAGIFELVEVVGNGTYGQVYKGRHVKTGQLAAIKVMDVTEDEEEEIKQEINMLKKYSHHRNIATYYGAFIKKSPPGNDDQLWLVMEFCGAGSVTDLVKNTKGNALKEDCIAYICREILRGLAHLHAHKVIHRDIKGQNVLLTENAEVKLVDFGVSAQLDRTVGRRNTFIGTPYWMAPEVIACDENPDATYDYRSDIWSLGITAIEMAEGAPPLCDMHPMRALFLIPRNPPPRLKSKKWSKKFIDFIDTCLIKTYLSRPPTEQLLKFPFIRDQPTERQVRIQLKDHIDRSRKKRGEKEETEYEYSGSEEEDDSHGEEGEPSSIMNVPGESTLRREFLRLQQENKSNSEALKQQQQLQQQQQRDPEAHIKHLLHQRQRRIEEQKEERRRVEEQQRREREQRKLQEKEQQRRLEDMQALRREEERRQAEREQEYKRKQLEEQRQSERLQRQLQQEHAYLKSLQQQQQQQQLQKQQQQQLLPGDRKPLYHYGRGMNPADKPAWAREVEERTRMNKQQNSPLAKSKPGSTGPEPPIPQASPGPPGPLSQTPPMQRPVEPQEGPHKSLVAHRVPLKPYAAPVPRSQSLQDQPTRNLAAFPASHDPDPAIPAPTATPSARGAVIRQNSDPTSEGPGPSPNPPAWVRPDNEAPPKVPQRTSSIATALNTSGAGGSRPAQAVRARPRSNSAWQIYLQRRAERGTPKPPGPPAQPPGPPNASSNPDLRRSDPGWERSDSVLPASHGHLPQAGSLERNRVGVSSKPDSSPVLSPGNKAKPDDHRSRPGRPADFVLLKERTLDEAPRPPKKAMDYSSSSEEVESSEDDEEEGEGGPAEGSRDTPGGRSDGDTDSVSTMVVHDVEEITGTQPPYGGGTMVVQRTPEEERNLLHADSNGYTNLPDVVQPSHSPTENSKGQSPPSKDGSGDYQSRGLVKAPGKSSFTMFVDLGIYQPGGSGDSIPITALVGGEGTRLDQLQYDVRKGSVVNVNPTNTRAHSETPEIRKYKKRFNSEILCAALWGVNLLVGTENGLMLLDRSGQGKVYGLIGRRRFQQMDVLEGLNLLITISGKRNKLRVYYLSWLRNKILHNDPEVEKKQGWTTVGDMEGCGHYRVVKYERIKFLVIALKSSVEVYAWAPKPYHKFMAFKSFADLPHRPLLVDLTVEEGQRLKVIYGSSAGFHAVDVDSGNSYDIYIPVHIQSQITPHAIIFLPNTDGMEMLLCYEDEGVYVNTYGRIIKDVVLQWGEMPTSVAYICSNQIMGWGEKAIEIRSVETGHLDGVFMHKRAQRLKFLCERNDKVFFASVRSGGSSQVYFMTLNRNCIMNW
NEK6 (human), sequence (Q9HC98 whole entry, looked up): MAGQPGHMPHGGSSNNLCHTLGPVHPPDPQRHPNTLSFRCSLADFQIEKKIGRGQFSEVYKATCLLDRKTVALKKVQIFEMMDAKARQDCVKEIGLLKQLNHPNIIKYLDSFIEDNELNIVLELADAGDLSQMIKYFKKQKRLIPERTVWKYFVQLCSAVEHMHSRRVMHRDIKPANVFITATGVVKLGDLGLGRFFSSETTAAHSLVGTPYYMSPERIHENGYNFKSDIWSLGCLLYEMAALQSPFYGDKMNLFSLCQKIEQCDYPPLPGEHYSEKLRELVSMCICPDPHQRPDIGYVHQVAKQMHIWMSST
SRC (human), sequence (P12931 whole entry, looked up): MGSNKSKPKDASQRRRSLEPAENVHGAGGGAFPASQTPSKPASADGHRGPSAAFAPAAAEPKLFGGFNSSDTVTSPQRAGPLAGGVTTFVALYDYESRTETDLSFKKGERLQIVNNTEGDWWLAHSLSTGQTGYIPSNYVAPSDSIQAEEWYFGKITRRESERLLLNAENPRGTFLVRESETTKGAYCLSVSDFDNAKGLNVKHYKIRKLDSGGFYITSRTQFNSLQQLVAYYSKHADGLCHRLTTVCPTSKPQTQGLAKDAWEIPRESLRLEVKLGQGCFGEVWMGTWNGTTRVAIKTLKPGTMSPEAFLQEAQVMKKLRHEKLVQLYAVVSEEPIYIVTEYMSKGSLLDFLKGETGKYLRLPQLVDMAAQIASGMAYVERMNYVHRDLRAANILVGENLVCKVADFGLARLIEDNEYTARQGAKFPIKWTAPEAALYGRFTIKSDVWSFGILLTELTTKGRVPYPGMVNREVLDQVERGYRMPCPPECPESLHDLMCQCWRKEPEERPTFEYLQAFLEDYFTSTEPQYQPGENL
MAPK3 (human), sequence (P27361 whole entry, looked up): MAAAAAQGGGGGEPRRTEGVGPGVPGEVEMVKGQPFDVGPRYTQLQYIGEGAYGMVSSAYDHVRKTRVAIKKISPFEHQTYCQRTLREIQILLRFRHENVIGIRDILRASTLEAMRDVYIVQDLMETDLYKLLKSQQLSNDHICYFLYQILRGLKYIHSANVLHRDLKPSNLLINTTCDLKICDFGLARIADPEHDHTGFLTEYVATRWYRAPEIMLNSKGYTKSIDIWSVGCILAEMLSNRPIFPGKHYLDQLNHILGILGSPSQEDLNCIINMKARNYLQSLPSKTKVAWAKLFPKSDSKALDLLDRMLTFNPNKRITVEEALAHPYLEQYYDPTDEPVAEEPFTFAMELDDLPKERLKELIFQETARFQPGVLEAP
GRK5 (human), sequence (P34947 whole entry, looked up): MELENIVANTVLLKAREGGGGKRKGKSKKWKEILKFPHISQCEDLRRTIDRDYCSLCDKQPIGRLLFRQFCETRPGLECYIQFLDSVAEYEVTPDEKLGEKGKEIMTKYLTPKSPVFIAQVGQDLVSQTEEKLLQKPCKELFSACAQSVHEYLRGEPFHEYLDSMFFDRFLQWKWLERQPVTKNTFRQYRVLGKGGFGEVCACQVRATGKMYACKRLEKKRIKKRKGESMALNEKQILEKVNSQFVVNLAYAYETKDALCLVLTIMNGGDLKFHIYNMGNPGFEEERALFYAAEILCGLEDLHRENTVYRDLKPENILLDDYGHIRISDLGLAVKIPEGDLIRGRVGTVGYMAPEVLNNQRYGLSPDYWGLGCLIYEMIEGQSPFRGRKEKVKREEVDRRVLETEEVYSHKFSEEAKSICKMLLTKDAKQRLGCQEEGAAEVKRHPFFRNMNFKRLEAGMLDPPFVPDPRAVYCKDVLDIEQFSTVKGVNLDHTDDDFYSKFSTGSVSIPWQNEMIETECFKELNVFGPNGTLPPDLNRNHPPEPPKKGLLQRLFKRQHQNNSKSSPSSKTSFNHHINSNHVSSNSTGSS
DCLK2 (human), sequence (Q8N568 whole entry, looked up): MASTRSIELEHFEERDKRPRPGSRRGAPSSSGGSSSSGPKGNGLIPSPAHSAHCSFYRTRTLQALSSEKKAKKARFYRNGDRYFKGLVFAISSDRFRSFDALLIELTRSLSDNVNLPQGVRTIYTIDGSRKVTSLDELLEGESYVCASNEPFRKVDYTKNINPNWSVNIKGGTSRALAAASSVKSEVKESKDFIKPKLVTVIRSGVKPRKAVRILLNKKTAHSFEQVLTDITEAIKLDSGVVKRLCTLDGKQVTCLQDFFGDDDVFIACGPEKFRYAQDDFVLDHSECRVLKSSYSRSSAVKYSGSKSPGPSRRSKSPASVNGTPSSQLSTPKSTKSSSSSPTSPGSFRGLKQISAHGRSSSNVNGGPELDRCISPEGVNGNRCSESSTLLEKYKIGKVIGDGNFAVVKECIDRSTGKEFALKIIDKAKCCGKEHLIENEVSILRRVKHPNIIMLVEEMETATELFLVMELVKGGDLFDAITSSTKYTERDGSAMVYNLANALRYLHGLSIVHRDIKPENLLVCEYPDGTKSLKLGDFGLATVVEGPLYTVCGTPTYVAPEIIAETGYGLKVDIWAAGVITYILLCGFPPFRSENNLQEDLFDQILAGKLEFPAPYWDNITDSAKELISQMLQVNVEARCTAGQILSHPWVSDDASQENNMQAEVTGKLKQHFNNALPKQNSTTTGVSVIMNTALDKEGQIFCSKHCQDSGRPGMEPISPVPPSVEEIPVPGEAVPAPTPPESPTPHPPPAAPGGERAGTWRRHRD
STK25 (human), sequence (O00506 whole entry, looked up): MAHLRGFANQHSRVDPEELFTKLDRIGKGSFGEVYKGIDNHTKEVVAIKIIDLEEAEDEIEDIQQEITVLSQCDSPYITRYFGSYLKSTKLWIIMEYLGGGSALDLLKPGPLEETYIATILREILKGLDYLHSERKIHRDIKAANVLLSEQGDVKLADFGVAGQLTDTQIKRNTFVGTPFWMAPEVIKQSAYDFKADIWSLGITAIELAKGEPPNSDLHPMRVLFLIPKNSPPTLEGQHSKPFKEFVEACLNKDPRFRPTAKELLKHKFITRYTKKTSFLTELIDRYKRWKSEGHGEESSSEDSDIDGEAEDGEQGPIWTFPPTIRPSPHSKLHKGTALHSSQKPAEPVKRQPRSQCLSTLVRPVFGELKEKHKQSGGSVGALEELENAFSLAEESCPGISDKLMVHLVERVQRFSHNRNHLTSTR

SMILES: CC(C)N(CCC(=O)c1ccc2ccccc2c1)Cc1ccccc1
- residual activity (CAMK2A (human)): 106%
- residual activity (CAMK2B (human)): 96.6%
- residual activity (CLK1 (human)): 109%
- residual activity (FGR (human)): 94.2%
- residual activity (CAMK1 (human)): 104%
- residual activity (STK16 (human)): 91.6%
- residual activity (MAP3K5 (human)): 103%
- residual activity (CAMK2D (human)): 90%
- residual activity (CDK4 CCND3 (human)): 92.4%
- residual activity (CAMK2G (human)): 97.7%
- residual activity (MAP3K11 (human)): 97%
- residual activity (NEK6 (human)): 109%
- residual activity (MAPKAPK3 (human)): 95.7%
- residual activity (MAP4K4 (human)): 96.7%
- residual activity (IRAK1 (human)): 102%
- residual activity (ROCK2 (human)): 92.8%
- residual activity (STK25 (human)): 94%
- residual activity (PASK (human)): 97.3%
- residual activity (STK3 (human)): 102%
- residual activity (EPHB3 (human)): 88.5%
- residual activity (CAMK4 (human)): 98.3%
- residual activity (LCK (human)): 98.9%
- residual activity (MAP3K7 TAB1 (human)): 95.4%
- residual activity (CDK6 CCND3 (human)): 102%
- residual activity (STK17A (human)): 104%
- residual activity (MAPK8 (human)): 88%
- residual activity (NEK9 (human)): 96.4%
- residual activity (GRK5 (human)): 93.7%
- residual activity (PNCK (human)): 102%
- residual activity (STK10 (human)): 93.6%
- residual activity (STK38 (human)): 100%
- residual activity (DCLK2 (human)): 98.3%
- residual activity (STK33 (human)): 104%
- residual activity (SRC (human)): 93.2%
- residual activity (MAPK3 (human)): 98.5%
- residual activity (MAP2K1 (human)): 82.5%
- residual activity (MYLK (human)): 95.6%
- residual activity (PRKG1 (human)): 101% and 102%
- residual activity (JAK3 JH1 JH2 (human)): 80.9%
- residual activity (TGFBR2 (human)): 98.8%
- residual activity (MINK1 (human)): 101%
- residual activity (CDK5 CDK5R1 p35 (human)): 103%
